Experimental data reported in US9163008B2, “Pyrimidines as sodium channel blockers” (Purdue Pharma, L.P., priority 2011, dated 2015).
Where two headings read alike, the source gives them in different places.

How the values were obtained:
human Nav1.7 = human Nav1.7 (Homo sapiens (Human), UniProt Q15858); experiment: FLIPR sodium dye assay (CoroNa Green) with KCl and test article pre-incubation; type: cell-based; settings: read-out: Nav1.7 Activity FLIPR assay IC50
hNav1.7 = hNav1.7 (Homo sapiens (Human), UniProt Q15858); experiment: Electrophysiology (EP) whole-cell patch clamp assay; type: cell-based; settings: for Ki: read-out: Nav1.7 Activity EP assay Ki; for Kd: resting block dissociation constant, read-out: Nav1.7 Activity EP assay Kr
Method: The hNav1.7 expressing HEK-293 cells were plated on 35 mm culture dishes pre-coated with poly-D-lysine in standard DMEM culture media (Mediatech, Inc., Herndon, Va.) and incubated in a 5% CO2 incubator at 37° C. Cultured cells were used approximately 12-48 h after plating.
On the day of experimentation, the 35 mm dish was placed on the stage of an inverted microscope equipped with a perfusion system that continuously perfuses the culture dish with fresh recording media. A gravity driven superfusion system was used to apply test solutions directly to the cell under evaluation. This system consists of an array of glass pipette glass connected to a motorized horizontal translator. The outlet of the shooter was positioned approximately 100 μm from the cell of interest.
Gigaseals were formed and the whole-cell configuration was established in voltage clamp mode, and membrane currents generated by hNav1.7 were recorded in gap-free mode. […] Signals were sampled at 50 kHz and low pass filtered at 3 kHz.
To determine a membrane potential at which the majority of channels are in the resting state, a standard steady-state inactivation (SSIN) protocol was run using 100 ms prepulses×10 mV depolarizing steps. The holding potential for testing resting block (Vh1) was 20 mV more hyperpolarized than the first potential where inactivation is observed with the inactivation protocol.
From this holding potential a standard I-V protocol was run to determine the potential at which the maximal current (Imax) was elicited. This potential was the test potential (Vt).
The fractional response was calculated as follows: FR=I(after drug)/I(control),
where I is the peak current amplitude and was used for estimating resting block dissociation constant, Kr: Kr=[drug]*{FR/(1−FR)},
To assess the block of inactivated channels the holding potential was depolarized such that 20-50% of the current amplitude was reduced when pulsed to the same Vt as above. The magnitude of this depolarization depends upon the initial current amplitude and the rate of current loss due to slow inactivation. This was the second holding potential (Vh2). The current reduction was recorded to determine the fraction of available channels at this potential (h). h=I@Vh2/Imax.
At this membrane voltage a proportion of channels are in the inactivated state, and thus inhibition by a blocker includes interaction with both resting and inactivated channels.
To determine the potency of the test compound on inactivated channels, a series of currents were elicited by 10 ms voltage steps from Vh2 to Vt every 10-15 seconds. After establishing a stable baseline, the low concentration of the compound was applied. Multiple cumulative concentrations may have to be applied to identify a concentration that will block between 40-60% of the current. Washout was attempted to re-establish baseline. Fractional responses were measured with respect to a projected baseline to determine Kapp. Kapp=[drug]*{FR/(1−FR)},
This Kapp value, along with the calculated Kr and h values, were used to calculate the affinity of the compound for the inactivated channels (Ki) using the following equation: Ki=(1−h)/((1/Kapp)−(h/Kr)).
Vehicle solution used to establish base line was also contacting 0.3% DMSO.
Data was analyzed off-line using Clampfit software (pClamp, v. 8; Axon Instruments) and graphed using GraphPad Prizm (v. 4.0 or higher) software.

[1] = tested on: SNL-induced mechanical hyperalgesia; experiment: SNL-induced mechanical hyperalgesia model (paw pressure test); type: in vivo, rat; settings: rats, dosed orally at 100 mg/kg, vehicle 0.5% methyl cellulose, one hour before testing
Method: In the Chung model, the spinal nerve ligation (SNL) model of neuropathic pain is used to produce mechanical hyperalgesia, thermal hyperalgesia, and tactile allodynia in rats. Surgery is performed under isoflurane/O2 inhalation anesthesia. Following induction of anesthesia a 3 cm incision is made and the left paraspinal muscles are separated from the spinous process at the L4-S2 levels. The L6 transverse process is carefully removed with a pair of small rongeurs to identify visually the L4-L6 spinal nerves. The left L5 (or L5 and L6) spinal nerve(s) is (are) isolated and tightly ligated with silk thread. […] The animals can also be assessed for response to noxious thermal stimuli or for tactile allodynia, as described below. […] Sensitivity to noxious mechanical stimuli was measured in animals using the paw pressure test to assess mechanical hyperalgesia. In rats, hind paw withdrawal thresholds (“PWT”), measured in grams, in response to a noxious mechanical stimulus were determined using an analgesymeter (Model 7200, commercially available from Ugo Basile of Italy), as described in Stein (Biochemistry & Behavior 31: 451-455 (1988)). […] PWT was determined once for each rat at each time point. PWT can be measured only in the injured paw, or in both the injured and non-injured paw. […]

[2] = affinity for inactivated channels, hNav1.7 HEK-293
[3] = recombinant human Nav1.7 in HEK293, veratridine and scorpion venom agonists

Chain of human Nav1.7 (Q15858 other isoform, or with tags, fused parts or gaps): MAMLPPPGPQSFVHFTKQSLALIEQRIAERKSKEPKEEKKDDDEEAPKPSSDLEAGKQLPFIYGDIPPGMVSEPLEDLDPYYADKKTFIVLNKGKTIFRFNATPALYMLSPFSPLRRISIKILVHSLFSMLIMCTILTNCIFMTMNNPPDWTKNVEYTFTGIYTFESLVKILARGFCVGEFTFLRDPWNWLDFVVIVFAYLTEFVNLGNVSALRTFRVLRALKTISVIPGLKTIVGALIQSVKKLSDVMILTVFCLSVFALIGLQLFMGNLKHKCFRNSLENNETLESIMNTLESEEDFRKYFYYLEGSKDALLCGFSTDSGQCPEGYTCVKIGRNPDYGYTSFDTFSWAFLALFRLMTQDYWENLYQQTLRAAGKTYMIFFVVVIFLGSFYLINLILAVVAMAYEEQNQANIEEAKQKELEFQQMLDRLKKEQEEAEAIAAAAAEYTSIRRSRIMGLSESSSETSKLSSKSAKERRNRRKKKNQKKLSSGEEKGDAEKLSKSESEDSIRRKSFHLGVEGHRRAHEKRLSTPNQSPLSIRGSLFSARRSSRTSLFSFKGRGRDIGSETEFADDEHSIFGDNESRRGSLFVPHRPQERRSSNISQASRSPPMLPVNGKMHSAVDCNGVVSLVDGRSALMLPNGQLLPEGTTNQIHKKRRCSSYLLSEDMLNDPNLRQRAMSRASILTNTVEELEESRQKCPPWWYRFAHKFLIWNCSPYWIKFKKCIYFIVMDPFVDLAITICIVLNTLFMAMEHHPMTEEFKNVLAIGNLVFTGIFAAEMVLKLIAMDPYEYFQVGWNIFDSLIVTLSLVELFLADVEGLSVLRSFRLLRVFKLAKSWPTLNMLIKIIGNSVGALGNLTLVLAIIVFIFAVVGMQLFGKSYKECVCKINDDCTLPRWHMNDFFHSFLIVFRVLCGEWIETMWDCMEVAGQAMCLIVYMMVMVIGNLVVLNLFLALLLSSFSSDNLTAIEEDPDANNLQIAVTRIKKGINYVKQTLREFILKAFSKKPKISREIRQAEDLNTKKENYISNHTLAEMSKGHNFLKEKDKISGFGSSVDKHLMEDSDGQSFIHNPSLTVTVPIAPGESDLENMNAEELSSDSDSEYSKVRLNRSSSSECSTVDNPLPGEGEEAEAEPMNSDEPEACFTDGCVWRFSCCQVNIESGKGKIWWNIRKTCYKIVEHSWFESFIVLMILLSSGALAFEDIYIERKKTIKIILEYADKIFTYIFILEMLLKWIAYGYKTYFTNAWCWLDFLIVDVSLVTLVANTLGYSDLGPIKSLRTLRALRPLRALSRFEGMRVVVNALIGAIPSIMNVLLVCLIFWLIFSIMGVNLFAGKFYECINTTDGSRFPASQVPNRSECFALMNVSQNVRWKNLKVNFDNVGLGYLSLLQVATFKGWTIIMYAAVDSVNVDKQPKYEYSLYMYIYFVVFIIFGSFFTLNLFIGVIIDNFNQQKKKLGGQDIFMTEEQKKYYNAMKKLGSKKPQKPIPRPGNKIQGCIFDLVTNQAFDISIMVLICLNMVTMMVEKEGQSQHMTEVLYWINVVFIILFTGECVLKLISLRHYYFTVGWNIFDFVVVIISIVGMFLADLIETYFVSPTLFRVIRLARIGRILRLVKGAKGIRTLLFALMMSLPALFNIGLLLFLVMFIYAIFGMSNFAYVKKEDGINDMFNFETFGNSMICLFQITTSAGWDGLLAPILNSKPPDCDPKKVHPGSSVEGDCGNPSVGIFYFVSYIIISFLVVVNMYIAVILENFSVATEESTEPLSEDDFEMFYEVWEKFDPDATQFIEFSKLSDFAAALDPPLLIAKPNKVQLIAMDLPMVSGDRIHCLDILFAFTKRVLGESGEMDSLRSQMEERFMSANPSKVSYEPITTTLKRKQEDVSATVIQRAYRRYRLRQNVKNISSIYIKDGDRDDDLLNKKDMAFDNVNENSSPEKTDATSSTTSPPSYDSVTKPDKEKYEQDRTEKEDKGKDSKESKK
Chain of hNav1.7 (Q15858 other isoform, or with tags, fused parts or gaps): as above

Row | SMILES | IC50 (human Nav1.7) [nM] | Ki (hNav1.7; [2]) [nM] | Kd (hNav1.7; hNav1.7 HEK-293) [nM] | Ki (hNav1.7) [nM] | IC50 (human Nav1.7; [3]) [nM] | SNL-induced mechanical hyperalgesia (paw withdrawal threshold) [1]
1 | NC(=O)c1cc(N2CCC[C@H]2C(N)=O)nc(-c2ccc(Oc3ccc(F)cc3)cc2)n1 [Cpd No. 5, (S)-6-(2-carbamoylpyrrolidin-1-yl)-2-(4-(4-fluorophenoxy)phenyl)pyrimidine-4-carboxamide] | 260 | 78 | 7950 | – | – | –
2 | C[C@H](Nc1cc(C(N)=O)nc(-c2ccc(Oc3ccc(C(F)(F)F)cn3)cc2)n1)C(N)=O [Cpd No. 13, (S)-6-((1-amino-1-oxopropan-2-yl)amino)-2-(4-((5-(trifluoromethyl)pyridin-2-yl)oxy)phenyl)pyrimidine-4-carboxamide] | 990 | 420 | 169000 | – | – | –
3 | C[C@@H](Nc1cc(C(N)=O)nc(-c2ccc(Oc3ccc(F)cc3)cc2)n1)C(N)=O [Cpd No. 21, (R)-6-((1-amino-1-oxopropan-2-yl)amino)-2-(4-(4-fluorophenoxy)phenyl)pyrimidine-4-carboxamide] | 600 | – | 7250 | 230 | – | –
4 | C[C@H](Nc1cc(C(=O)O)nc(-c2ccc(Oc3ccc(F)cc3)cc2)n1)C(N)=O [Cpd No. 35, (S)-6-((1-amino-1-oxopropan-2-yl)amino)-2-(4-(4-fluorophenoxy)phenyl)pyrimidine-4-carboxylic acid] | – | 20500 | 102000 | – | > 20000 | –
5 | C[C@H](Nc1cc(C(=O)O)nc(-c2ccc(Oc3ccc(F)cc3)cc2)n1)C(=O)O [Cpd No. 40, (S)-6-((1-carboxyethyl)amino)-2-(4-(4-fluorophenoxy)phenyl)pyrimidine-4-carboxylic acid] | – | 41000 | 110000 | – | > 20000 | –
6 | C[C@H](Nc1cc(C(N)=O)nc(-c2ccc(Oc3ccc(Cl)cn3)cc2)n1)C(N)=O [Cpd No. 63, (S)-6-((1-amino-1-oxopropan-2-yl)amino)-2-(4-((5-chloropyridine-2-yl)oxy)phenyl)pyrimidine-4-carboxamide] | 790 | 600 | 28000 | – | – | –
7 | C[C@H](Nc1cc(C(N)=O)nc(-c2ccc(Oc3ccc(Cl)cc3F)cc2)n1)C(N)=O [Cpd No. 64, (S)-6-((1-amino-1-oxopropan-2-yl)amino)-2-(4-(4-chloro-2-fluorophenoxy)phenyl)pyrimidine-4-carboxamide] | 180 | 16 | 730 | – | – | –
8 | C[C@H](Nc1cc(C(N)=O)nc(-c2ccc(Oc3ccc(OC(F)(F)F)cc3)cc2)n1)C(N)=O [Cpd No. 84, (S)-6-((1-amino-1-oxopropan-2-yl)amino)-2-(4-(4-(trifluoromethoxy)phenoxy)phenyl)pyrimidine-4-carboxamide] | – | – | – | – | – | reduced SNL-induced mechanical hyperalgesia
9 | NC(=O)c1cc(N[C@H]2CCNC2=O)nc(-c2ccc(Oc3ccc(C(F)(F)F)cn3)cc2)n1 [compound 99, (S)-6-((2-oxopyrrolidin-3-yl)amino)-2-(4-((5-(trifluoromethyl)pyridin-2-yl)oxy)phenyl)pyrimidine-4-carboxamide] | 570 | 83 | 4650 | – | – | reduced SNL-induced mechanical hyperalgesia
